According to article PMC11755709, “Cytotoxicity and Oxidative Stress Induced by Technology-Critical Elements versus Traditional Metal Contaminants: An In Vitro Bioassay Study” (Environmental Science & Technology, 2025):
“Also recorded” adds a separate entry of the source. Read-outs that look alike come from different tables or passages of the source.

Key:
VM7Luc4E2 cell line = details: VM7Luc4E2, ATPase test; for cytotoxicity (cell viability <80% vs vehicle control): up to 10 or 100 mg/L; for IC80: read-out: IC80, cytotoxicity
MCF7AREc32 cell line = details: for cytotoxicity (cell viability <80% vs vehicle control) / IC70, cytotoxicity: MCF7AREc32, MTS test; for cytotoxicity (cell viability <80% vs vehicle control): up to 10 or 100 mg/L; for IC70, cytotoxicity: 24 h exposure, 70% response relative to vehicle control
DR-EcoScreen cell line = details: for IC70, cytotoxicity / cytotoxicity (cell viability <80% vs vehicle control): MTS test; for cytotoxicity (cell viability <80% vs vehicle control): up to 10 or 100 mg/L
[1] = system: nuclear factor erythroid 2-related factor 2 (Nrf2) pathway; assay type: cell-based, human; details: for ECIR1.5 (effective concentration at an induction ratio of 1.5), Nrf2 activity: MCF7AREc32, 24 h exposure, linear regression; for induction of oxidative stress (Nrf2 activity exceeding a 1.5 induction ratio): MCF7AREc32, noncytotoxic concentrations
[2] = system: AR-EcoScreen GR-KO-M1 cell line; details: for IC70, cytotoxicity / cytotoxicity (cell viability <80% vs vehicle control): AR-EcoScreen GR-KO-M1, MTS test; for cytotoxicity (cell viability <80% vs vehicle control): up to 10 or 100 mg/L; for IC50: read-out: interpolated IC50, cytotoxicity, AR-EcoScreen, converted to mmol/L
human bone osteoblasts [3] = system: human bone osteoblasts; parameters: method as in Al-Ghafari et al. [55]; details: ref Al-Ghafari et al. [55], read-out: IC50 (LDH assay); cited from earlier work
human bone osteoblasts [4] = system: human bone osteoblasts; parameters: method as in Al-Ghafari et al. [55]; details: ref Al-Ghafari et al. [55], read-out: IC50 (MTT assay); cited from earlier work
[5] = system: rat NR8383 alveolar macrophages; parameters: method as in Huang et al. [69]; details: highest tested 200 mg/L, ref Huang et al. [69]; cited from earlier work

Compound | cytotoxicity (cell viability <80% vs vehicle control) (VM7Luc4E2 cell line) | cytotoxicity (cell viability <80% vs vehicle control) (MCF7AREc32 cell line) | IC70, cytotoxicity (DR-EcoScreen cell line; 24 h exposure) [µg/mL] | cytotoxicity (cell viability <80% vs vehicle control) (DR-EcoScreen cell line) | ECIR1.5 (effective concentration at an induction ratio of 1.5), Nrf2 activity [1] [mg/L] | IC70, cytotoxicity ([2]; 24 h exposure) [mg/L] | cytotoxicity (cell viability <80% vs vehicle control) [2] | other results
[Tl] [Tl, thallium] | Cytotoxicity is shown; also recorded: more evident | Cytotoxicity is shown; also recorded: Cytotoxicity for Tl was observed |  |  |  |  |  | IC80, cytotoxicity (VM7Luc4E2 cell line; 24 h exposure): 9.0 µg/mL; IC80 (VM7Luc4E2 cell line; converted from mg/L): 44 µM
[Ga] [Ga, gallium] | Cytotoxicity is shown; also recorded: Cytotoxic effects were most clearly observed |  | 100 | Cytotoxicity is shown; also recorded: Cytotoxic effects were most clearly observed | 0.83 | 50 | Cytotoxicity is shown; also recorded: Cytotoxic effects were most clearly observed | IC70, cytotoxicity (VM7Luc4E2 cell line; 24 h exposure): 52 µg/mL; IC70, cytotoxicity (VM7Luc4E2 cell line; converted from mg/L): 750 µM; IC70, cytotoxicity (DR-EcoScreen cell line; converted from mg/L): 1400 µM; induction of oxidative stress (Nrf2 activity exceeding a 1.5 induction ratio) [1]: found to induce oxidative stress; IC70, cytotoxicity ([2]; converted from mg/L): 0.72 mmol/L
[Te] [Te, tellurium] | Cytotoxicity is shown; also recorded: Cytotoxic effects were most clearly observed |  | 8.7 | Cytotoxicity is shown; also recorded: Cytotoxic effects were most clearly observed |  | 0.28 | Cytotoxicity is shown; also recorded: Cytotoxic effects were most clearly observed | IC70, cytotoxicity (VM7Luc4E2 cell line; 24 h exposure): 1.5 µg/mL; IC70, cytotoxicity (VM7Luc4E2 cell line; converted from mg/L): 12 µM; IC70, cytotoxicity (DR-EcoScreen cell line; converted from mg/L): 68 µM; IC70, cytotoxicity ([2]; converted from mg/L): 2.2 × 10^–3 mmol/L
[Nd] [Nd, Neodymium] | Cytotoxicity is shown; also recorded: Cytotoxic effects were most clearly observed |  | 31 | Cytotoxicity is shown; also recorded: Cytotoxic effects were most clearly observed |  | 26 | Cytotoxicity is shown; also recorded: Cytotoxic effects were most clearly observed | IC70, cytotoxicity (VM7Luc4E2 cell line; 24 h exposure): 24 µg/mL; IC70, cytotoxicity (VM7Luc4E2 cell line; converted from mg/L): 170 µM; IC70, cytotoxicity (DR-EcoScreen cell line; converted from mg/L): 210 µM; IC70, cytotoxicity ([2]; converted from mg/L): 0.18 mmol/L
[Ge] [Ge, germanium] | Neither Ge nor In exhibited any cytotoxicity | Neither Ge nor In exhibited any cytotoxicity |  | Neither Ge nor In exhibited any cytotoxicity |  |  | Neither Ge nor In exhibited any cytotoxicity | 
[As] [As, arsenic, reference compound] |  | Cytotoxicity is shown; also recorded: cytotoxicity was identified | 0.83 | Cytotoxicity is shown; also recorded: cytotoxicity was identified | 0.11 |  | Cytotoxicity is shown; also recorded: cytotoxicity was identified | IC70, cytotoxicity (MCF7AREc32 cell line): 8.1 µg/mL; IC50 (DR-EcoScreen cell line; read-out: interpolated IC50, cytotoxicity, converted to mmol/L): 0.014 mmol/L; induction of oxidative stress (Nrf2 activity exceeding a 1.5 induction ratio) [1]: found to induce oxidative stress; IC50 [2]: 0.17 mmol/L
[Pb] [Pb, lead] |  |  |  |  |  |  |  | IC50 (human bone osteoblasts [3]): 79 µM; IC50 (human bone osteoblasts [4]): 55 µM
CC(C)(C)c1cc(O)ccc1O [tBHQ, tert-butylhydroquinone] |  |  |  |  | 0.27 |  |  | 
[Gd] [Gd, Gadolinium] | Cytotoxicity is shown; also recorded: induce cytotoxic effects |  |  |  |  |  |  | IC80, cytotoxicity (VM7Luc4E2 cell line; 24 h exposure): 3.7 µg/mL; IC80 (VM7Luc4E2 cell line; converted from mg/L): 24 µM
[Cd] [Cd, cadmium] |  | Cytotoxicity is shown; also recorded: cytotoxicity was identified |  | Cytotoxicity is shown; also recorded: cytotoxicity was identified | 0.24 | 2.6 | Cytotoxicity is shown; also recorded: cytotoxicity was identified | IC50 (human bone osteoblasts [3]): 63 µM; IC70, cytotoxicity (MCF7AREc32 cell line): 9.1 µg/mL; IC50 (MCF7AREc32 cell line; read-out: interpolated IC50, cytotoxicity, MCF7AREc32, converted to mmol/L): 0.087 mmol/L; IC50 (human bone osteoblasts [4]): 32 µM; induction of oxidative stress (Nrf2 activity exceeding a 1.5 induction ratio) [1]: found to induce oxidative stress; IC50 [2]: 0.052 mmol/L
[Nd+3].[Nd+3].[O-2].[O-2].[O-2] [Nd2O3] |  |  |  |  |  |  |  | concentration up to which no noticeable cytotoxicity was observed [5]: 6250 ng/mL
[Yb] [Yb, Ytterbium] | Cytotoxicity is shown; also recorded: induce cytotoxic effects |  |  |  |  |  |  | IC80, cytotoxicity (VM7Luc4E2 cell line; 24 h exposure): 33 µg/mL; IC80 (VM7Luc4E2 cell line; converted from mg/L): 190 µM
